# Experimental data taken from patent US10975030B2, “Grp94 selective inhibitors and uses thereof” (University of Kansas, priority 2016, dated 2021).
# How the values were obtained:
# Assay type in all cases: cell-based
# [1] = Anti-proliferation assay (MTS/PMS), MDA-MB-231; details: human, MDA-MB-231 cells, MDA-MB-231, 25 μM
# Procedure: (§1) Anti-proliferation Assays. Cells were seeded (2000/well, 100 μL) in 96-well plates and incubated overnight. Following incubation, compounds with varying concentrations in DMSO (1% DMSO final concentration) were added and cells were returned to the incubator for 72 h. After 72 h, the cell viability was determined using an MTS/PMS cell proliferation kit (Promega) per the manufacturer's instructions. Absorption value from 1% DMSO wells were used as 100% proliferation, and values were adjusted accordingly.
# [2] = Anti-proliferation assay (MTS/PMS), PC-3 MM-2; details: human, PC-3 MM-2 cells, PC-3 MM-2, 25 μM
# Procedure: as §1
# Akt = test: Western blot of cytosolic Hsp90 client protein Akt; details: 30 μM (same concentration)
# Procedure: (§2) Cell Culture. Cell culture was performed as described in the art.^25 Tetracycline-inducible Hek cells stably overexpressing I477N mutant myocilin were grown and maintained in Dulbecco's Modified Eagle's Medium supplemented with 10% fetal bovine serum (Invitrogen, penicillin (100 units/mL), streptomycin ([…]) and 1% GlutaMAX (Invitrogen) at 37 C and 5% CO2. Stably overexpressing cells were selected for using hygromycin B ([…]) (InvivoGen) and G418 ([…]) (Gibco). I477N myocilin expression was induced with tetracycline ([…]) for 48H prior to drug treatment.
# (§3) Inhibitor Treatment. Inhibitors were solubilized in DMSO (Sigma Aldrich), and diluted to documented concentrations. Cells were treated drop wise with inhibitors 24H prior to cell harvest. DMSO concentration was diluted to 1% total cell medium volume.
# (§4) Cell Harvest. Cell harvest was performed as previously described.^21 24H after inhibitor treatment, culture medium was removed and cells were washed 2× with ice cold PBS. […]
# (§5) Western Blotting. Western blot analysis was performed as previously described.^41 Cell lysates were prepared at identical protein concentrations, as determined by BCA analysis, in 2× Laemmli sample buffer (Bio-Rad) and denatured by boiling for 5 min at 100 C. […]
# [3] = test system: integrin α2, integrin αL, Syne2, VAMP2, Rab10 in PC3-MM2 cells; test: Cell fractionation and Western blot analysis of PC3-MM2 cells; details: 30 μM, 24 h, cytoplasmic (Cyto) fraction, compared to DMSO, FIG. 2A
# Procedure: (§6) Chemicals and Cell culture. Compounds were dissolved in DMSO and stored at −20° C. until use. The PC3-MM2 and MDA-MB-231 cells were maintained in DMEM (Cellgro) media supplemented with streptomycin (500 μg/mL), penicillin (100 units/mL) and 10% FBS at 37° C. and 5% CO2.
# (§7) Antibodies. The following antibodies were used for western blotting and/or immunofluorescence: goat anti-integrin α L #sc6609, rabbit anti-SYNE2 #sc99066, and rabbit anti-actin #sc1616-R (Santa Cruz Biotech-nology, Santa Cruz, Calif.); rabbit anti-Integrin α 2 #ab181548, rabbit anti-VAMP2 #ab3347 (Abcam, Cambridge, Mass.); Phalloidin 647 #A22287 (Invitrogen, Carlsbad Calif.); rabbit anti-Rab10 #4262S (Cell Signaling Technology, Danvers, Mass.).
# Cell fractionation and Western Blot Analysis. […] After sedimenting the cell debris, the protein concentration of each lysate was measured in quadruplicate using the BCA protein assay and bovine serum albumin as the standard. The coefficient of variation was determined for each set of quadruplicate measures and if the variability exceeded 5%, the protein assay was repeated for that set of samples. […]
# Hsp70 = test: Western blot of Hsp70 levels; details: compared to 17-AAG (5 μM reference)
# Procedure: as §2, §3, §4, §5
# I477N mutant myocilin = test: Western blot of I477N mutant myocilin levels in tetracycline inducible HEK cells; details: 30 μM, 24 h, HEK cells over-expressing I477N myocilin
# Procedure: as §2, §3, §4, §5
# MDA-MB-231 cells = test: Wound healing scratch assay, MDA-MB-231; details: 10 μM ('at 10 μM and 5 μM respectively'), 0, 16, 24 h, FIG. 3A
# Procedure: as §6
# (§8) Wound Healing Scratch Assay. The cells were seeded in a 24-well plate in complete media and allowed to form a monolayer. After monolayer formation, a scratch was introduced with a sterile 0.1-10 μl pipet tip. The media was replaced with fresh media in the absence or presence of the indicated drug concentrations. Photomicrographs were taken at different time points with an Olympus IX71 microscope using a 10x air lens and CellSans Dimensions software. The images were processed with Image J software.
# PC-3 MM-2 cells = test: Wound healing scratch assay, PC-3 MM-2; details: 5 μM ('at 10 μM and 5 μM respectively'), 0, 16, 24 h, FIG. 3B
# Procedure: as §6, §8
# PC3-MM2 cells = test: Immunofluorescence / confocal microscopy analysis of PC3-MM2 cells; details: FIG. 2B
# Procedure: as §6, §7
# Immunofluorescence Analysis. For cell imaging, 1 μm-Slide 8 well ibidiTreat IBIDI glass slides were used. PC3-MM2 cells were fixed with freshly made 4% (w/w) paraformaldehyde in PBS for 15 min, permeabilized with 0.1% (w/w) Tween 20 in PBS for 5 min and quenched with 0.1% (w/w) sodium borohydride for 5 min. The sections were blocked with 3% (w/w) BSA in PBS for 1 h and incubated with the primary antibody at a 1:100 concentration in 1% BSA in PBS overnight, prior to incubation with secondary antibody conjugated with Alexa Fluor 568 for 3 h. The sections were counterstained with DAPI and/or with Phalloidin to visualize DNA and filamentous actin (F-actin), respectively. The wells were washed three times with PBS after each step.
# Confocal images were acquired using a custom epifluorescent/confocal microscope composed of the following components: an Olympus IX81 inverted spinning disc confocal microscope base (Olympus America, Center Valley, Pa.), a Prior microscope stage for automated image acquisition (Prior Scientific, Rockland, Mass.), an Olympus 60X oil Immersion objective for confocal images (Olympus) and a Hamamatsu Electron Multiplying Charge-Coupled Device (EMCCD) camera (Hamamatsu, Hamamatsu, Shizuoka Prefecture, Japan). Images were captured using the SlideBook acquisition and analysis software, (Intelligent Imaging Innovations (3i), Denver, Colo.).
# Images were collected with 8-10 image stacks with a 0.3 micron step size through the cells. Images were processed using Image J software (NIH).
smiles,measurement,setting,value
"NC(=O)c1ccc(-n2cccc2Cc2ccccc2O)cc1N[C@H]1CC[C@H](O)CC1 [Compound 8j, 4-(2-(2-hydroxybenzyl)-1H-pyrrol-1-yl)-2-(((1r,4r)-4-hydroxycyclohexyl)amino)benzamide]","viability at 72 h, 25 µM",[1],> 95%
same,"viability at 72 h, 25 µM",[2],> 95%
same,Akt maturation,Akt,did not affect
same,"levels of integrin α2, integrin αL, Syne2, VAMP2, and Rab10",[3],reduced levels
same,Hsp70 levels,Hsp70,remained unaffected
same,mutant myocilin levels,I477N mutant myocilin,significant decrease
same,migration of MDA-MB-231 cells,MDA-MB-231 cells,inhibited migration
same,migration of PC-3 MM-2 cells,PC-3 MM-2 cells,inhibited migration
same,F-actin localization,"PC3-MM2 cells; confocal microscopy, versus DMSO treated cells",formed sporadic patches in the cytoplasm
same,integrin α2 localization,"PC3-MM2 cells; immunofluorescence, versus untreated cells",localized as patches in the cytoplasm
